From patent publication US9744164B2, “Neuroprotective polyphenol analogs” (Salk Institute for Biological Studies, priority 2011, dated 2017)

System: N9 microglial cells
Assay: anti-inflammatory assay, LPS-induced microglial activation (NO release)
Assay type: cell-based, mouse
Settings: bacterial lipopolysaccharide, derivative 1-10 μM, 24 hr
Method: Anti-inflammatory assay. Mouse N9 microglial cells plated in DME with 7.5% DFCS were treated with 10 μg/ml bacterial lipopolysaccharide (Sigma) alone or in the presence of the Fisetin derivatives (1-10 μM) or Fisetin (10 μM) as a positive control. After 24 hr the medium was removed, spun briefly to remove floating cells and 100 μl assayed for NO using 100 μl of the Griess Reagent (Sigma) in a 96 well plate. After incubation for 10 min at room temperature the absorbance at 550 nm was read on a microplate reader.
Three secondary screens allowed assessment of three key activities of Fisetin that are highly relevant to stroke, as well as other neurological disorders: maintenance of glutathione (GSH), the major endogenous cellular antioxidant, inhibition of LPS-induced microglial activation, an indicator of anti-inflammatory activity and PC12 cell differentiation, a measure of neurotrophic activity. All of these activities are relevant to the nerve cell loss seen in stroke (Gelderblom, et al., Stroke. 2009, 40 (5), 1849-1857; Pandya, et al., Cent. Nerv. Syst. Agents. Med. Chem. (2011) Apr. 27; Lewerenz, et al., J. Neurochem. (2010) 113 (2), 502-504). […] To assess GSH maintenance, total intracellular GSH levels after a 24 hr treatment with the compound both in the absence and presence of glutamate, an inducer of GSH loss and oxidative stress (Tan, et al., Curr. Top. Med. Chem. (2001) 1, 497-506; Maher, et al., Free Radical Research. (2006) 40 (10), 1105-1111) was measured Inhibition of LPS-induced microglial activation was determined by treating N9 mouse microglial cells with LPS alone and in the presence of the compounds and assaying NO release into the medium 24 hr later (Zheng, et al., Int. Immunopharmacol. (2008) 8, (3), 484-494). PC12 cell differentiation was determined by treating PC12 cells with the compounds and looking at neurite outgrowth after 24 hr. In all cases, Fisetin was used as a positive control (Sagara, et al., J. Neurochem. (2004) 90, 1144-1155).
The roles of the four different hydroxyl groups in the activity of Fisetin were studied. […] Cell viability was determined after 24 hr by the MTT assay. The ability to maintain GSH (GSH) was determined by treating HT22 cells with different doses of each derivative (1-10 μM) in the presence of 5 mM glutamate. After 24 hr cell extracts were prepared and analyzed for total GSH. Fisetin (10 μM) was used as a positive control. The ability to induce PC12 cell differentiation (PC12 diff'n) was determined by treating PC12 cells in N2 medium with different doses of each derivative (1-10 μM) for 24 hr. Differentiation was assessed by visual inspection with Fisetin (10 μM) as a positive control. Anti-inflammatory activity (microglia) was assessed in N9 microglial cells treated with bacterial lipopolysaccharide alone or in the presence different doses of each derivative (1-10 μM) for 24 hr. Fisetin was used as a positive control. TEAC values, a measure of direct antioxidant activity, were determined using the ABTS+ decolorization assay.

Compound	microglia (anti-inflammatory activity)
CC(C)Oc1cc(-c2ccc(O)cc2O)nc2ccccc12 [CMS-084, 4-isopropoxy-2-(2,4-dihydroxyphenyl)quinoline]	64%
CC(C)Oc1cc(-c2ccc(N(C)C)cc2)nc2ccccc12 [CMS-112, 4-isopropoxy-2-(4-dimethylaminophenyl)quinoline]	71%
COc1cc(-c2cc(=O)c3cc(C)c(C)cc3o2)ccc1O [CMS-064, 2-(4-hydroxy-3-methoxyphenyl)-6,7-dimethyl-4H-chromen-4-one]	41%
Cc1cc2oc(-c3ccc(O)c(O)c3)c(O)c(=O)c2cc1C [CMS-027, 2-(3,4-dihydroxyphenyl)-3-hydroxy-6,7-dimethyl-4H-chromen-4-one]	82%
Cc1cc(O)c(C(=O)/C=C/c2ccc(O)cc2O)cc1C [CMS-087, (E)-3-(2,4-dihydroxyphenyl)-1-(2-hydroxy-4,5-dimethylphenyl)prop-2-en-1-one]	53%
COc1ccc(-c2oc3cc(C)c(C)cc3c(=O)c2O)cc1O [CMS-092, 3-hydroxy-2-(3-hydroxy-4-methoxyphenyl)-6,7-dimethyl-4H-chromen-4-one]	72%
COc1cc(-c2oc3cc(C)c(C)cc3c(=O)c2O)ccc1OCc1ccccc1 [CMS-059, 2-(4-(benzyloxy)-3-methoxyphenyl)-3-hydroxy-6,7-dimethyl-4H-chromen-4-one]	14%
CCOc1ccc(-c2oc3c(ccc4ccccc43)c(=O)c2O)cc1OCC [CMS-036, 2-(3,4-diethoxyphenyl)-3-hydroxy-4H-benzo[h]chromen-4-one]	13%
CCOc1ccc(-c2oc3cc(C)c(C)cc3c(=O)c2O)cc1OCC [CMS-025, 2-(3,4-diethoxyphenyl)-3-hydroxy-6,7-dimethyl-4H-chromen-4-one]	11%
Cc1cc2oc(-c3ccc(O)cc3O)cc(=O)c2cc1C [CMS-094, 2-(2,4-dihydroxyphenyl)-6,7-dimethyl-4H-chromen-4-one]	5%
CC(C)Oc1cc(-c2ccc(N3CCCC3)cc2)nc2ccccc12 [CMS-113, 4-isopropoxy-2-(4-(pyrrolidin-1-yl)phenyl)quinoline]	67%
COc1cc(-c2cc(OC)c3ccccc3n2)ccc1O [CMS-017, 4-methoxy-2-(4-hydroxy,3-methoxyphenyl)quinoline]	90%
Cc1cc2oc(-c3ccc(N4CCCC4)cc3)cc(=O)c2cc1C [CMS-116, 6,7-dimethyl-2-(4-(pyrrolidin-1-yl)phenyl)-4H-chromen-4-one]	2%
COc1cc(-c2ccc(N(C)C)cc2)nc2ccccc12 [CMS-109, 4-methoxy-2-(4-dimethylaminophenyl)quinoline]	62%
COc1cc(-c2ccc(O)cc2O)nc2ccccc12 [CMS-083, 4-methoxy-2-(2,4-dihydroxyphenyl)quinoline]	84%
COc1cc(-c2oc3c(ccc4ccccc43)c(=O)c2O)ccc1O [CMS-070, 3-hydroxy-2-(4-hydroxy-3-methoxyphenyl)-4H-benzo[h]chromen-4-one]	78%
Cc1cc2oc(-c3ccc(O)cc3O)c(O)c(=O)c2cc1C [CMS-093, 2-(2,4-dihydroxyphenyl)-3-hydroxy-6,7-dimethyl-4H-chromen-4-one]	0%
COc1cc(-c2oc3cc(C)c(C)cc3c(=O)c2O)ccc1O [CMS-069, 3-hydroxy-2-(4-hydroxy-3-methoxyphenyl)-6,7-dimethyl-4H-chromen-4-one]	77%
O=c1cc(-c2ccc(N3CCCC3)cc2)oc2c1ccc1ccccc12 [CMS-115, 2-(4-(pyrrolidin-1-yl)phenyl)-4H-benzo[h]chromen-4-one]	23%
CN(C)c1ccc(-c2cc(=O)c3ccc4ccccc4c3o2)cc1 [CMS-120, 2-(4-(dimethylamino)phenyl)-4H-benzo[h]chromen-4-one]	35%
O=c1c(O)c(-c2ccc(O)c(O)c2)oc2ccc3ccccc3c12 [CMS-041, 3-(3,4-dihydroxyphenyl)-2-hydroxy-1H-benzo[f]chromen-1-one]	87%
Cc1cc2oc(-c3ccc(N(C)C)cc3)cc(=O)c2cc1C [CMS-119, 2-(4-(dimethylamino)phenyl)-6,7-dimethyl-4H-chromen-4-one]	8%
COc1cc(-c2oc3c(ccc4ccccc43)c(=O)c2O)ccc1OCc1ccccc1 [CMS-065, 2-(4-(benzyloxy)-3-methoxyphenyl)-3-hydroxy-4H-benzo[h]chromen-4-one]	88%
COc1cc(/C=C/C(=O)c2ccc3ccccc3c2O)ccc1OCc1ccccc1 [CMS-063, (E)-3-(4-(benzyloxy)-3-methoxyphenyl)-1-(1-hydroxynaphthalen-2-yl)prop-2-en-1-one]	9%
O=c1c(O)c(-c2ccc(N3CCCC3)cc2)oc2c1ccc1ccccc12 [CMS-114, 3-hydroxy-2-(4-(pyrrolidin-1-yl)phenyl)-4H-benzo[h]chromen-4-one]	26%
COc1cc(-c2cc(=O)c3cc(C)c(C)cc3o2)ccc1OCc1ccccc1 [CMS-058, 2-(4-(benzyloxy)-3-methoxyphenyl)-6,7-dimethyl-4H-chromen-4-one]	83%
COc1ccc(/C=C/C(=O)c2cc(C)c(C)cc2O)cc1O [CMS-088, (E)-1-(2-hydroxy-4,5-dimethylphenyl)-3-(3-hydroxy-4-methoxyphenyl)prop-2-en-1-one]	56%
COc1cc(-c2ccccc2)nc2ccccc12 [CMS-021, 4-methoxy-2-phenylquinoline]	6%
